Laboratory results: BindingDB's records for patent US20250099442 (Prothena Biosciences, 2025)

What follows are molecules tested against Dual specificity tyrosine-phosphorylation-regulated kinase 1A (Homo sapiens, UniProt Q13627) (assay: DYRK1A Inhibition Assay).
Experimental: Assay Procedure1. Add 5 μL enzyme & substrate mixture to each well in Column 2-23 and A24-H24 wells of the 384-well assay plate;2. Add 5 μL 0% Phosphorylation control to A1-H1 and I24-P24 wells of the assay plate;3. Add 5 μL 100% Phosphorylation control to I1-P1 wells of the assay plate;4. Spin the assay plate (1000 rpm, 1 minute @23° C.);5. Incubate enzyme with compounds for 15 minutes at 23° C.;6. Add 5 μL ATP solution to each well of the assay plate;7. Spin the plate (1000 rpm, 1 minute @23° C.);8. Incubate the assay plate for 90 minutes at 23° C.;9. Add 10 μL Development reagent A to each well of the assay plate;10. Centrifuge the plate at 1000 rpm about 15 seconds and seal a film over assay plate. Incubate the assay plate for 30 minutes at 23° C.11. Read assay plates on Envision

Row | SMILES | IC50
1 | CC(C)n1cc(-c2ccncc2)c2ccncc21 [US20250099442, Compound I.2] | < 10 nM
2 | CC(C)CN1CCC(C(=O)Nc2cc(-c3cn(C(C)C)c4cnccc34)ccn2)CC1 [US20250099442, Compound I.4] | < 10 nM
3 | CC(C)CN1CCC(C(=O)Nc2nccc(-c3cn(C(C)C)c4cnccc34)n2)CC1 [US20250099442, Compound I.8] | 10 to 100 nM
4 | CC(C)CN1CCC(CNc2nccc(-c3cn(C(C)C)c4cnccc34)n2)CC1 [US20250099442, Compound I.9] | 100 to 1000 nM
5 | c1cncc(-c2cc3c(-c4ccc5c(c4)CCO5)cncc3o2)c1 [US20250099442, Compound I.11] | > 1000 nM
6 | COc1cccc(-c2nc3cc(NS(C)(=O)=O)cnc3s2)c1 [US20250099442, Compound I.12] | > 1000 nM
7 | CS(=O)(=O)Nc1cnc2sc(-c3cccc(O)c3)nc2c1 [US20250099442, Compound I.13] | > 1000 nM
8 | CN1CCC(C(=O)Nc2nc3ccc(-c4ccncc4)cc3s2)CC1 [US20250099442, Compound I.14] | < 10 nM
9 | NC(=O)c1ccc(-c2cnc3[nH]cc(C4CCC4)c3c2)cc1 [US20250099442, Compound I.15] | 100 to 1000 nM
10 | c1cc(-c2cnc3[nH]cc(C4CCC4)c3c2)ccn1 [US20250099442, Compound I.16] | > 1000 nM
11 | CC(C)CN1CCC(C(=O)Nc2cc(-c3ccc4c(cnn4C)c3)ccn2)CC1 [US20250099442, Compound I.17] | 10 to 100 nM
12 | CS(=O)(=O)N1CCC[C@@H](n2cnc3ccc(-c4ccncc4)cc32)C1 [US20250099442, Compound I.22] | 100 to 1000 nM
13 | CC(=O)N1CCCC(n2cnc3ccc(-c4ccncc4)cc32)C1 (stereo not given) [US20250099442, Compound I.23] | 100 to 1000 nM
14 | Cn1nc2cnccc2c1-c1ccnc(NC(=O)C2CC2)c1 [US20250099442, Compound I.25] | > 1000 nM
15 | COCCn1nc2cnccc2c1-c1ccnc(NC(=O)C2CC2)c1 [US20250099442, Compound I.26] | > 1000 nM
16 | O=C(OCc1ccccc1)N1CCC(n2cnc3ccc(-c4ccncc4)cc32)CC1 [US20250099442, Compound I.30] | 10 to 100 nM
17 | c1cc(-c2ccc3ncn(C4CCNCC4)c3c2)ccn1 [US20250099442, Compound I.31] | 100 to 1000 nM
18 | N#Cc1ccc(S(=O)(=O)N2CCCC(n3cnc4ccc(-c5ccncc5)cc43)C2)cc1 (stereo not given) [US20250099442, Compound I.33] | 100 to 1000 nM
19 | CN1CCC(C(=O)Nc2cc(-c3ccc4c(c3)ncn4C)ccn2)CC1 [US20250099442, Compound I.34] | < 10 nM
20 | Fc1ccc(COc2cc(-c3ccc4c(c3)CCO4)ccn2)cc1F [US20250099442, Compound I.35] | > 1000 nM
21 | c1cc(-c2ccc3c(c2)CCO3)cc(OCC2CCCCN2)n1 (stereo not given) [US20250099442, Compound I.36] | 100 to 1000 nM

Further lines, results first:

Row | IC50 | SMILES
22 | 10 to 100 nM | c1cc(-c2c[nH]c3cnccc23)ccn1 [US20250099442, Compound I.1]
23 | < 10 nM | CC(C)CN1CCC(C(=O)Nc2cc(-c3c[nH]c4cnccc34)ccn2)CC1 [US20250099442, Compound I.3]
24 | 10 to 100 nM | CC(C)CN1CCC(CNc2cc(-c3c[nH]c4cnccc34)ccn2)CC1 [US20250099442, Compound I.5]
25 | 10 to 100 nM | CC(C)CN1CCC(CNc2cc(-c3cn(C(C)C)c4cnccc34)ccn2)CC1 [US20250099442, Compound I.6]
26 | > 1000 nM | c1ccc(Oc2cc(-c3ccc4c(c3)CCO4)ccn2)cc1 [US20250099442, Compound I.10]
27 | 10 to 100 nM | CC(C)CN1CCC(C(=O)Nc2cc(-c3ccc4nn(C)cc4c3)ccn2)CC1 [US20250099442, Compound I.18]
28 | 10 to 100 nM | c1cc(-c2ccc3ncn(C4CCCNC4)c3c2)ccn1 (stereo not given) [US20250099442, Compound I.19]
29 | 100 to 1000 nM | c1cc(Cc2cnc3ccc(-c4ccncc4)cn23)c2cn[nH]c2c1 [US20250099442, Compound I.28]
30 | 10 to 100 nM | CS(=O)(=O)N1CCC(n2cnc3ccc(-c4ccncc4)cc32)CC1 [US20250099442, Compound I.32]
